Laboratory results as given in US20170112897A1, “METHODS FOR TREATING BRAIN INSULIN RESISTANCE” (priority 2015, published 2017).

System: SOCS3 associated with the insulin receptor (SOCS3/IRβ)
Experiment: Ex vivo Western blotting of SOCS3 to IR beta chain ratio in hippocampal formation
Assay type: cell-based, human
Details: MCI cases
Text: The data shown are ratios of SOCS3 to IR beta chain (IRβ) in ex vivo Western blotting tests on the hippocampal formation of age- and sex-matched normal (N), non-amnestic mild cognitive impairment (naMCI), amnestic mild cognitive impairment (aMCI), and AD dementia (ADd) cases (n=10 in each group). The basal SOCS3/IRβ levels were highly elevated in naMCI, aMCI, and ADd cases compared to the normal cases. […] Asterisks indicate statistical significance levels for differences within diagnostic groups (*=p<0.05 and *** p=<0.0001).

D-Ala^2 GIP
basal SOCS3/IRβ ratio: highly effective in reducing this ratio
